Data published in patent publication US7361743B2 (Pfizer Inc, priority 2004, dated 2008).
Converted amounts (≈) assume the structure as drawn. Like-named read-outs stand apart in the source and are kept apart here.

Columns and labels:
Haemophilus influenzae = assay: Susceptibility testing, NCCLS microdilution MIC; assay type: cell-based; conditions: Haemophilus influenzae, Example A′
Enterococcus faecalis = assay: Susceptibility testing, NCCLS microdilution MIC; assay type: cell-based; conditions: Enterococcus faecalis, Example A′
Bacteroides fragilis = assay: Susceptibility testing, NCCLS microdilution MIC (anaerobe); assay type: cell-based; conditions: Bacteroides fragilis, ATCC25285; B. fragilis ATCC 25285; Example A′; read-out: MIC B. fragilis
Staphylococcus aureus = assay: Susceptibility testing, NCCLS microdilution MIC; assay type: cell-based
[1] = system: E. coli transcription/translation (bacterial protein synthesis, E. coli S30 extract); assay: In vitro inhibition of E. coli transcription and translation assay (TT), cell-free; assay type: biochemical; conditions: for IC50: cell-free E. coli S30 extract; for In vitro inhibition of E. coli transcription and translation compared with literature azepine compound VIII(18): cell-free TT assay, comparison in words
Procedure: Inhibition of bacterial protein synthesis was assayed in a cell-free E. coli transcription/translation assay.
Stock solutions of compounds were prepared at 10 mg/mL in DMSO. The assay contained less or equal to 1% (v/v) final concentration of DMSO. Three-fold serial dilutions were prepared in assay buffer at 6-fold final concentration in 96 well microtiter plate.
All vials, tubes and microtiter plates are RNase free. The Mix was freshly prepared with 10 μl H2O, 10 μl AA-M, 10 μl AA-L, 80 μl Premix and 50 μl ES30 extract. The assay was performed in a 96-well plate. Five microliters of compounds at various concentrations (6-fold final assay concentration) were preincubated with 20 μl of the mix for 5 min at room temperature. The reaction started with addition of 5 μl of plasmid (˜0.1 mg/mL pGEMBGAL), and kept at 37° C. for 1 h followed by the addition of 150 μl of OPNG solution (4 mg/mL OPNG in 0.1M NaPi, pH 7.5, 1 mM MgCl2 and 2 mM DTT). 150 μl of the reaction was transferred to a ½-area plate and increase in absorption at OD420 nm was monitored for 10 min using a Spectramax plate reader (Molecular Devices). The slope of absorption change over time is corresponding to the pathway activity.
The E. coli S30 Extract for circular DNA kit was purchased from Promega. Original plasmid pGEMBGAL was obtained from Promega and amplified via Maxiprep in house. 2-Nitrophenyl β-D-galactopyranoside was obtained from Sigma. Clindamycin HCl (USP) was purchased from Spectrum.
The inhibition are expressed as percent of control activity (without inhibitor) which is calculated according to equation (1): Inhibition %=(compound slope-blank slope)/(control slope-blank slope)*100 (1)
All IC50s were determined by fitting the experimental data to equation (2) using software DeltaGraph (DeltaPoint Inc.): Y=Y0/(1+(X/IC50)[…])+c (2)
Where Y: activity at given inhibitor concentration; Y0: activity without inhibitor; X: inhibitor concentration; d: slope; c: constant.
Lincosamides inhibit bacterial growth through binding to the bacterial 50S ribosome, thus inhibiting peptide bond formation. The transcription/translation assay provides a screening tool to measure inhibition of bacterial protein synthesis pathway at the target level without the complication of differences in membrane permeability.

[2] = ATCC31517, H. influenzae ATCC 31517, read-out: MIC H. influenzae
[3] = ATCC29212, E. faecalis ATCC 29212, read-out: MIC E. faecalis
[4] = ATCC25923, S. aureus ATCC 25923, Example A′, read-out: MIC S. aureus

| Compound | MIC (Haemophilus influenzae; [2]) | MIC (Enterococcus faecalis; [3]) | MIC (Bacteroides fragilis) | MIC (Staphylococcus aureus; [4]) | IC50 [1] | In vitro inhibition of E. coli transcription and translation compared with literature azepine compound VIII(18) [1] | MIC (Haemophilus influenzae; strain not stated, 24 h at 35° C., read-out: MIC against Haemophilus influenzae) | MIC (Enterococcus faecalis; strain not stated, 24 h at 35° C., read-out: MIC against Enterococcus faecalis) | MIC (Staphylococcus aureus; Example A′, strain not stated, 24 h at 35° C., read-out: MIC against Staphylococcus aureus) |
| --- | --- | --- | --- | --- | --- | --- | --- | --- | --- |
| CS[C@H]1O[C@H]([C@H](NC(=O)C2CC[C@H](CCCCC#N)CCN2)[C@H](C)Cl)[C@H](O)[C@H](O)[C@H]1O (stereo in doubt) [Example 8′, 5-(4-Cyano-butyl)-azepane-2-carboxylic acid [2-chloro-1-(3,4,5-trihydroxy-6-methylsulfanyl-tetrahydro-pyran-2-yl)-propyl]-amide] | 0.5 µg/mL (≈ 1.05 µM) | 0.06 µg/mL (≈ 0.126 µM) | 1 µg/mL (≈ 2.09 µM) | 0.125 µg/mL (≈ 0.261 µM) | 0.19 µM | markedly superior |  |  |  |
| CS[C@H]1O[C@H]([C@H](NC(=O)[C@@H]2CC[C@H](CCCOc3cccnc3)CCN2)[C@H](C)Cl)[C@H](O)[C@H](O)[C@H]1O [Example 15′, 5-[3-(Pyridin-3-yloxy)-propyl]-azepane-2-carboxylic acid [2-chloro-1-(3,4,5-trihydroxy-6-methylsulfanyl-tetrahydro-pyran-2-yl)-propyl]-amide] | 2 µg/mL (≈ 3.76 µM) | 0.5 µg/mL (≈ 0.94 µM) | > 8 µg/mL | 0.125 µg/mL (≈ 0.235 µM) | 1.1 µM | markedly superior |  |  |  |
| CCCc1cn(CCC[C@@H]2CCN[C@H](C(=O)N[C@@H]([C@H]3O[C@H](SC)[C@H](O)[C@@H](O)[C@H]3O)[C@H](C)Cl)CC2)nn1 [Example 17′, 5-[3-(4-Propyl-[1,2,3]triazol-1-yl)-propyl]-azepane-2-carboxylic acid [2-chloro-1-(3,4,5-trihydroxy-6-methylsulfanyl-tetrahydro-pyran-2-yl)-propyl]-amide] | 4 µg/mL (≈ 7.3 µM) | 8 µg/mL (≈ 14.6 µM) | > 8 µg/mL | 1 µg/mL (≈ 1.82 µM) | 0.75 µM | markedly superior |  |  |  |
| CS[C@H]1O[C@H]([C@H](NC(=O)[C@@H]2CC[C@H](CCCn3cc(C(C)C)nn3)CCN2)[C@H](C)Cl)[C@H](O)[C@H](O)[C@H]1O [Example 18′, 5-[3-(4-(2-Propyl)-[1,2,3]triazol-1-yl)-propyl]-azepane-2-carboxylic acid [2-chloro-1-(3,4,5-trihydroxy-6-methylsulfanyl-tetrahydro-pyran-2-yl)-propyl]-amide] | 4 µg/mL (≈ 7.3 µM) | 4 µg/mL (≈ 7.3 µM) | > 8 µg/mL | 1 µg/mL (≈ 1.82 µM) | 0.44 µM | markedly superior |  |  |  |
| COCCCC[C@@H]1CCN[C@H](C(=O)N[C@@H]([C@H]2O[C@H](SC)[C@H](O)[C@@H](O)[C@H]2O)[C@H](C)Cl)CC1 [Example 12′, 5-(4-Methoxy-butyl)-azepane-2-carboxylic acid [2-chloro-1-(3,4,5-trihydroxy-6-methylsulfanyl-tetrahydro-pyran-2-yl)-propyl]-amide] | 0.5 µg/mL (≈ 1.04 µM) | 0.5 µg/mL (≈ 1.04 µM) | 2 µg/mL (≈ 4.14 µM) | 0.06 µg/mL (≈ 0.124 µM) | 0.29 µM | markedly superior |  |  |  |
| CS[C@H]1O[C@H]([C@H](NC(=O)[C@@H]2CCCCCN2)[C@H](C)Cl)[C@H](O)[C@H](O)[C@H]1O [VIII(18), Azepane-2-carboxylic acid [2-chloro-1-(3,4,5-trihydroxy-6-methylsulfanyl-tetrahydro-pyran-2-yl)-propyl]-amide, reference compound] | > 8 µg/mL | 8 µg/mL (≈ 20.2 µM) | 2 µg/mL (≈ 5.04 µM) | 4 µg/mL (≈ 10.1 µM) | 21 µM |  | > 8 µg/mL | 8 µg/mL (≈ 20.2 µM) | 4 µg/mL (≈ 10.1 µM) |
| CS[C@H]1O[C@H]([C@H](NC(=O)[C@@H]2CC[C@H](CCC(F)F)CCN2)[C@H](C)Cl)[C@H](O)[C@H](O)[C@H]1O [Example 10′, 5-(3,3-Difluoro-propyl)-azepane-2-carboxylic acid [2-chloro-1-(3,4,5-trihydroxy-6-methylsulfanyl-tetrahydro-pyran-2-yl)-propyl]-amide] | 0.5 µg/mL (≈ 1.05 µM) | 0.125 µg/mL (≈ 0.263 µM) | 1 µg/mL (≈ 2.11 µM) | 0.06 µg/mL (≈ 0.126 µM) | 0.53 µM | markedly superior |  |  |  |
| CS[C@H]1O[C@H]([C@H](NC(=O)C2CC[C@H](CCCCO)CCN2)[C@H](C)Cl)[C@H](O)[C@H](O)[C@H]1O (stereo in doubt) [Example 1′, 5-(4-Hydroxy-butyl)-azepane-2-carboxylic acid [2-chloro-1-(3,4,5-trihydroxy-6-methylsulfanyl-tetrahydro-pyran-2-yl)-propyl]-amide] | 0.5 µg/mL (≈ 1.07 µM) | 1 µg/mL (≈ 2.13 µM) | 8 µg/mL (≈ 17.1 µM) | 0.25 µg/mL (≈ 0.533 µM) | 0.53 µM | markedly superior |  |  |  |
| CS[C@H]1O[C@H]([C@H](NC(=O)[C@@H]2CC[C@H](CCCC(F)F)CCN2)[C@H](C)Cl)[C@H](O)[C@H](O)[C@H]1O [Example 11′, 5-(4,4-Difluoro-butyl)-azepane-2-carboxylic acid [2-chloro-1-(3,4,5-trihydroxy-6-methylsulfanyl-tetrahydro-pyran-2-yl)-propyl]-amide] | 0.25 µg/mL (≈ 0.511 µM) | 0.06 µg/mL (≈ 0.123 µM) | 1 µg/mL (≈ 2.04 µM) | 0.06 µg/mL (≈ 0.123 µM) | 0.25 µM | markedly superior |  |  |  |
| COCc1cn(CCC[C@@H]2CCN[C@H](C(=O)N[C@@H]([C@H]3O[C@H](SC)[C@H](O)[C@@H](O)[C@H]3O)[C@H](C)Cl)CC2)nn1 [Example 16′, 5-[3-(4-Methoxymethyl-[1,2,3]triazol-1-yl)-propyl]-azepane-2-carboxylic acid [2-chloro-1-(3,4,5-trihydroxy-6-methylsulfanyl-tetrahydro-pyran-2-yl)-propyl]-amide] | 2 µg/mL (≈ 3.64 µM) | > 8 µg/mL | > 8 µg/mL | 2 µg/mL (≈ 3.64 µM) | 0.44 µM | markedly superior |  |  |  |
| CS[C@H]1O[C@H]([C@H](NC(=O)[C@@H]2CC[C@H](CCCCOc3cccnc3)CCN2)[C@H](C)Cl)[C@H](O)[C@H](O)[C@H]1O [Example 14′, 5-[4-(Pyridin-3-yloxy)-butyl]-azepane-2-carboxylic acid [2-chloro-1-(3,4,5-trihydroxy-6-methylsulfanyl-tetrahydro-pyran-2-yl)-propyl]-amide] | 1 µg/mL (≈ 1.83 µM) | 0.5 µg/mL (≈ 0.916 µM) | 8 µg/mL (≈ 14.6 µM) | 0.125 µg/mL (≈ 0.229 µM) | 0.2 µM | markedly superior |  |  |  |
| CS[C@H]1O[C@H]([C@H](NC(=O)C2CC[C@H](CCCO)CCN2)[C@H](C)Cl)[C@H](O)[C@H](O)[C@H]1O (stereo in doubt) [Example 2′, 5-(3-Hydroxy-propyl)-azepane-2-carboxylic acid [2-chloro-1-(3,4,5-trihydroxy-6-methylsulfanyl-tetrahydro-pyran-2-yl)-propyl]-amide] | 0.5 µg/mL (≈ 1.1 µM) | 1 µg/mL (≈ 2.2 µM) | 4 µg/mL (≈ 8.79 µM) | 0.5 µg/mL (≈ 1.1 µM) | 0.4 µM | markedly superior |  |  |  |
| CS[C@H]1O[C@H]([C@H](NC(=O)[C@@H]2CC[C@H](CCCOCCF)CCN2)[C@H](C)Cl)[C@H](O)[C@H](O)[C@H]1O [Example 20′, 5-[3-(2-Fluoro-ethoxy)-propyl]-azepane-2-carboxylic acid [2-chloro-1-(3,4,5-trihydroxy-6-methylsulfanyl-tetrahydro-pyran-2-yl)-propyl]-amide] | 2 µg/mL (≈ 3.99 µM) | 2 µg/mL (≈ 3.99 µM) | 8 µg/mL (≈ 16 µM) | 0.125 µg/mL (≈ 0.249 µM) |  |  |  |  |  |
